Values after ≈ are worked out from the molar mass of the structure shown.
What was measured:
physchem = settings: thermodynamic from solid
[1] = Adhesiveness: material sticking to the punch on tableting; assay type: physicochemical; settings: 30 mg, φ8 mm round tooling, 10 KN, 30 s
Description: 30 mg of Form G and the crystalline form of the prior art were weighed and added into the dies of φ8 mm round tooling, tableted at 10 KN and held for 30 s. The amount of material sticking to the punch was weighed. The compression was repeated twice and the cumulative amount, maximum amount and average amount of material sticking to the punch during the compression process were recorded.

[2] = Hygroscopicity by dynamic vapor sorption (DVS); assay type: physicochemical
Description: Dynamic vapor sorption (DVS) was applied to test hygroscopicity of Form G and the crystalline form of the prior art with about 10 mg of samples. The weight gains at each relative humidity were recorded in a cycle of 0-95%-0 RH.

[3] = Stability of Form G on storage, crystalline form checked by XRPD; assay type: physicochemical; settings: for Crystalline form after storage: XRPD
From the text: Crystalline forms were checked by XRPD.

[4] = Bulk and tapped density of powder; assay type: physicochemical; settings: for Bulk density (ρ0): about 500 mg in 5-mL measuring cylinder; for Tapped density (ρf): tapped 1250 times
Description: The density of powder is mainly referred to the bulk density and tapped density. The bulk density refers to the density obtained by dividing the mass of the powder by the volume of the powder in the container. The tapped density is obtained by dividing the mass of the powder by the volume of the powder which is tapped to the tightest state.
About 500 mg of Form G and the crystalline form of the prior art are added into a 5-mL measuring cylinder to measure the bulk volumes. The bulk density was calculated according to the equation: bulk density ρ0=powder mass/bulk volume. The samples were tapped 1250 times to make them in the tightest state and the tapped volumes were recorded. The tapped density was calculated according to tapped density ρf=powder mass/tapped volume.

[5] = Kinetic solubility in biorelevant media and water (HPLC); settings: thermodynamic from solid
[6] = Flowability by compressibility index (Carr index); assay type: physicochemical; settings: graded from compressibility index
Description: Compressibility is usually used to evaluate the flowability of powder and granular intermediates during the formulation process, and is known as compressibility index (c). Compressibility index test method is as follows: a certain amount of powder was added into a measuring cylinder and bulk volume was recorded. Then the powder was tapped to make it in the tightest state, and the tapped volume was recorded. The bulk density (ρ0), tapped density (ρf) were calculated, and compressibility index was calculated according to c=(ρf−ρ0)/pf. Compressibility index, also known as Carr index, is an important index for evaluating flowability.
The test method of Compressibility index is as follows: Compressibility index was calculated according to bulk density ρ0 and tapped density ρf of Form G and the crystalline form of the prior art with c=(ρf−ρ0)/ρf*100%.

[7] = FaSSIF (fasted state simulated intestinal fluid), fassif
[8] = FeSSIF (fed state simulated intestinal fluid), fessif
[9] = SGF (simulated gastric fluid), simulated gastric fluid

CCS(=O)(=O)N1CC(CC#N)(n2cc(-c3ncnc4[nH]ccc34)cn2)C1 [Form G, Baricitinib]
solubility kinetic at 1 h (physchem; fassif): 81 µg/mL (≈ 218 µM)
solubility kinetic at 4 h (physchem; fassif): 100 µg/mL (≈ 269 µM)
solubility kinetic at 24 h (physchem; fassif): 140 µg/mL (≈ 377 µM)
solubility kinetic at 1 h (physchem; fessif): 130 µg/mL (≈ 350 µM)
solubility kinetic at 4 h (physchem; fessif): 170 µg/mL (≈ 458 µM)
solubility kinetic at 24 h (physchem; fessif): 220 µg/mL (≈ 592 µM)
solubility kinetic at 1 h (physchem; simulated gastric fluid): 2600 µg/mL (≈ 7000 µM)
solubility kinetic at 4 h (physchem; simulated gastric fluid): 2700 µg/mL (≈ 7270 µM)
solubility kinetic at 24 h (physchem; simulated gastric fluid): 2800 µg/mL (≈ 7540 µM)
solubility kinetic at 1 h (physchem; water): 52 µg/mL (≈ 140 µM)
solubility kinetic at 4 h (physchem; water): 66 µg/mL (≈ 178 µM)
solubility kinetic at 24 h (physchem; water): 96 µg/mL (≈ 258 µM)
Average amount of material sticking to the punch [1]: 0.06 mg
Cumulative amount of material sticking to the punch [1]: 0.12 mg
Maximum amount of material sticking to the punch [1]: 0.12 mg
Weight gain % ([2]; Relative humidity 0): 0%
Weight gain % ([2]; Relative humidity 10%): 0.01%
Weight gain % ([2]; Relative humidity 20%): 0.03%
Weight gain % ([2]; Relative humidity 30%): 0.04%
Weight gain % ([2]; Relative humidity 40%): 0.06%
Weight gain % ([2]; Relative humidity 50%): 0.07%
Weight gain % ([2]; Relative humidity 60%): 0.10%
Weight gain % ([2]; Relative humidity 70%): 0.15%
Weight gain % ([2]; Relative humidity 80%): 0.21%
Weight gain % ([2]; Relative humidity 90%): 0.27%
Weight gain % ([2]; Relative humidity 95%): 0.34%
Crystalline form change before and after DVS ([2]; XRPD overlay, cycle 0-95%-0 RH): no crystalline form change
Time for which the form is stable ([3]; 25° C./60% RH (long term)): at least 6 months
Crystalline form after storage ([3]; 25° C./60% RH, 6 months): Form G
Time for which the form is stable ([3]; 40° C./75% RH (accelerated)): at least 6 months
Crystalline form after storage ([3]; 40° C./75% RH, 6 months): Form G
Time for which the form is stable ([3]; 60° C./75% RH): at least 1 week
Crystalline form after storage ([3]; 60° C./75% RH, 1 week): Form G
Time for which the form is stable ([3]; 80° C.): at least 1 week
Crystalline form after storage ([3]; 80° C., 1 week): Form G
Bulk density (ρ0) [4]: 0.538 g/mL
Tapped density (ρf) [4]: 0.614 g/mL

CCS(=O)(=O)N1CC(CC#N)(n2cc(-c3ncnc4[nH]ccc34)cn2)C1 [Crystalline form of the prior art, Baricitinib, reference compound]
solubility kinetic at 1 h [5, 7]: 16 µg/mL (≈ 43.1 µM)
solubility kinetic at 4 h [5, 7]: 18 µg/mL (≈ 48.5 µM)
solubility kinetic at 24 h [5, 7]: 18 µg/mL (≈ 48.5 µM)
solubility kinetic at 1 h [5, 8]: 35 µg/mL (≈ 94.2 µM)
solubility kinetic at 4 h [5, 8]: 31 µg/mL (≈ 83.5 µM)
solubility kinetic at 24 h [5, 8]: 33 µg/mL (≈ 88.8 µM)
solubility kinetic at 1 h [5, 9]: 1900 µg/mL (≈ 5120 µM)
solubility kinetic at 4 h [5, 9]: 1900 µg/mL (≈ 5120 µM)
solubility kinetic at 24 h [5, 9]: 1900 µg/mL (≈ 5120 µM)
solubility kinetic at 1 h ([5]; water): 8.9 µg/mL (≈ 24 µM)
solubility kinetic at 4 h ([5]; water): 12 µg/mL (≈ 32.3 µM)
solubility kinetic at 24 h ([5]; water): 13 µg/mL (≈ 35 µM)
Average amount of material sticking to the punch [1]: 0.21 mg
Cumulative amount of material sticking to the punch [1]: 0.41 mg
Maximum amount of material sticking to the punch [1]: 0.43 mg
Weight gain % ([2]; Relative humidity 0): 0%
Weight gain % ([2]; Relative humidity 10%): 0.07%
Weight gain % ([2]; Relative humidity 20%): 0.11%
Weight gain % ([2]; Relative humidity 30%): 0.15%
Weight gain % ([2]; Relative humidity 40%): 0.19%
Weight gain % ([2]; Relative humidity 50%): 0.24%
Weight gain % ([2]; Relative humidity 60%): 0.30%
Weight gain % ([2]; Relative humidity 70%): 0.36%
Weight gain % ([2]; Relative humidity 80%): 0.44%
Weight gain % ([2]; Relative humidity 90%): 0.59%
Weight gain % ([2]; Relative humidity 95%): 0.78%
Flowability [6]: Very poor (32-37)
Flowability ([6]; listed as the prior art form): very poor
Bulk density (ρ0) [4]: 0.133 g/mL
Tapped density (ρf) [4]: 0.204 g/mL
